Laboratory results reported in patent publication US20090298834A1, “4-(AMINOMETHYL)CYCLOHEXANAMINE DERIVATIVES AS CALCIUM CHANNEL BLOCKERS” (priority 2008, published 2009).

Assays:
[1] = tested on: T-type over L-type channels; conditions: cited from earlier work
[2] = tested on: spinal nerve ligation model of neuropathic pain; conditions: rats; Dogrul et al., Pain (2003); cited from earlier work
[3] = biological target: T1, human α1G T-type channels (Homo sapiens, UniProt O43497); assay: T-type calcium channel block, whole cell patch clamp (α1G); type: cell-based; conditions: HEK cells stably expressing human α1G; mainly non-inactivated protocol; values above 10 μM represented as 10 μM, values below 0.30 μM represented as 0.30 μM
T1 construct: expressed in transfected cells; host or cells: HEK 293
T1 sequence (O43497 whole entry): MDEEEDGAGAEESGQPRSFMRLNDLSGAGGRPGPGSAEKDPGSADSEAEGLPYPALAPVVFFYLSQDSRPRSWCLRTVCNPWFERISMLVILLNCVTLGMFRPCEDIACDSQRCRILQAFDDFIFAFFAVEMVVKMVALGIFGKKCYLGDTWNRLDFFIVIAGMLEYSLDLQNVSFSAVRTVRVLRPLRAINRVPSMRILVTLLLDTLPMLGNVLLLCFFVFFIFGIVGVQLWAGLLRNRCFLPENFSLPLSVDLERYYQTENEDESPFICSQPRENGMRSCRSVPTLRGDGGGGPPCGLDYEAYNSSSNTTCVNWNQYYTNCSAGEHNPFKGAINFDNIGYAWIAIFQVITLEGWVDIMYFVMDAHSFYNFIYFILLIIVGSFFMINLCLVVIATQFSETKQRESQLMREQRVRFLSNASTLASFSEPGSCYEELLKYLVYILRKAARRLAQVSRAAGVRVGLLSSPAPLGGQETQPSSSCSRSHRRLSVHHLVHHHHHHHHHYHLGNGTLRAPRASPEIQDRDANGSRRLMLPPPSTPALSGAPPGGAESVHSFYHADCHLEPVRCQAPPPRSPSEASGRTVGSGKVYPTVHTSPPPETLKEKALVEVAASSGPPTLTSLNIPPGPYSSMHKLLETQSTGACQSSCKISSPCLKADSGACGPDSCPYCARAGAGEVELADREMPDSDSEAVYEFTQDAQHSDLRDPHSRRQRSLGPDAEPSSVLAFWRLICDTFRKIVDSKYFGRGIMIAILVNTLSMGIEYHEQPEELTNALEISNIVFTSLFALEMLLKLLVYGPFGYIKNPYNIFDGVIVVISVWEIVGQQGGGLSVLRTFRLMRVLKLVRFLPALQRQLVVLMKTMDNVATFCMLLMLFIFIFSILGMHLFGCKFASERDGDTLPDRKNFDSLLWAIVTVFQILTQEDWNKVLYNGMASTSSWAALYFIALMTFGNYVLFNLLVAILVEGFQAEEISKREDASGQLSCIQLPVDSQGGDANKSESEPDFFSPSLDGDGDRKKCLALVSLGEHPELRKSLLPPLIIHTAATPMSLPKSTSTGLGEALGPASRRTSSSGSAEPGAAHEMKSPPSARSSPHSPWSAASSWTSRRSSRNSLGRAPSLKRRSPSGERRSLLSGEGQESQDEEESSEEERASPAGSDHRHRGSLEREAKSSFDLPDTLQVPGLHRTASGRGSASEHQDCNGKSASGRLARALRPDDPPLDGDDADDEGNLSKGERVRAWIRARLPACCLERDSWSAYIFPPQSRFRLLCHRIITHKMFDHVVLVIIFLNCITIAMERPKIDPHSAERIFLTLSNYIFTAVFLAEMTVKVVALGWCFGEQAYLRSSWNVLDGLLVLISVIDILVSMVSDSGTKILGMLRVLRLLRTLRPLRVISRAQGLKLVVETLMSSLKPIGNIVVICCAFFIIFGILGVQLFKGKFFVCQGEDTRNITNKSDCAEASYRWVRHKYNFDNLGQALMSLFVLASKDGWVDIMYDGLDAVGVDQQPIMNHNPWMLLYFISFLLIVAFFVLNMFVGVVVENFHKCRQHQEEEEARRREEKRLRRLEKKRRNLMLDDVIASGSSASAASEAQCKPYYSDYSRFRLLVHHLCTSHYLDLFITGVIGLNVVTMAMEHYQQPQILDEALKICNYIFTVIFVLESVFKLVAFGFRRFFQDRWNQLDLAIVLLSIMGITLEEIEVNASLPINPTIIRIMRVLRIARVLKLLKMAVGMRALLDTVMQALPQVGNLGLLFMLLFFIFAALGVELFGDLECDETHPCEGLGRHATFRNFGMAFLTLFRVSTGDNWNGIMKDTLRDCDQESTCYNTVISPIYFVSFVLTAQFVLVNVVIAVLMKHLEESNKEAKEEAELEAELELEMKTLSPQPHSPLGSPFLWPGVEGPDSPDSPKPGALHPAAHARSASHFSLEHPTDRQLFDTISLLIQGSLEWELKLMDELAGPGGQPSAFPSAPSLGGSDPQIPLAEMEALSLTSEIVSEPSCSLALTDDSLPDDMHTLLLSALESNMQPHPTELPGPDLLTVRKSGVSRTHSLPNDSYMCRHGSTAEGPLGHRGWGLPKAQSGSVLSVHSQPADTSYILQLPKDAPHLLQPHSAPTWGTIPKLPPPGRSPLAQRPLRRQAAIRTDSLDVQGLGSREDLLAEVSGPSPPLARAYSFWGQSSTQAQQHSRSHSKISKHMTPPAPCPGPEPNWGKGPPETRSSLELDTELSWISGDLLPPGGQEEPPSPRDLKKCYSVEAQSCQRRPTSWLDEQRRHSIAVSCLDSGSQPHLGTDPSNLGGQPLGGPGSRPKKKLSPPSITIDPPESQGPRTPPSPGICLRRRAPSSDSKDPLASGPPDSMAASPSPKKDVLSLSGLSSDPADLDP
How it was run: (§1)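 Whole-cell patch clamp was run on HEK293 cells stably expressing human α1G or α1H. Cells were held at −110 mV and given a 1 s pre-pulse to −100 mV (non-inactivating protocol) before a 50 ms test pulse to −40 mV. Compounds were applied by gravity in external solution with 0.1-0.01% DMSO, and IC50 values are in μM, capped at 10 μM.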

[4] = biological target: T2, human α1H T-type channels (Homo sapiens, UniProt O95180); assay: T-type calcium channel block, whole cell patch clamp (α1H); type: cell-based; conditions: HEK cells stably expressing human α1H; mainly non-inactivated protocol; values above 10 μM represented as 10 μM
T2 construct: expressed in transfected cells; host or cells: HEK 293
T2 sequence (O95180 whole entry): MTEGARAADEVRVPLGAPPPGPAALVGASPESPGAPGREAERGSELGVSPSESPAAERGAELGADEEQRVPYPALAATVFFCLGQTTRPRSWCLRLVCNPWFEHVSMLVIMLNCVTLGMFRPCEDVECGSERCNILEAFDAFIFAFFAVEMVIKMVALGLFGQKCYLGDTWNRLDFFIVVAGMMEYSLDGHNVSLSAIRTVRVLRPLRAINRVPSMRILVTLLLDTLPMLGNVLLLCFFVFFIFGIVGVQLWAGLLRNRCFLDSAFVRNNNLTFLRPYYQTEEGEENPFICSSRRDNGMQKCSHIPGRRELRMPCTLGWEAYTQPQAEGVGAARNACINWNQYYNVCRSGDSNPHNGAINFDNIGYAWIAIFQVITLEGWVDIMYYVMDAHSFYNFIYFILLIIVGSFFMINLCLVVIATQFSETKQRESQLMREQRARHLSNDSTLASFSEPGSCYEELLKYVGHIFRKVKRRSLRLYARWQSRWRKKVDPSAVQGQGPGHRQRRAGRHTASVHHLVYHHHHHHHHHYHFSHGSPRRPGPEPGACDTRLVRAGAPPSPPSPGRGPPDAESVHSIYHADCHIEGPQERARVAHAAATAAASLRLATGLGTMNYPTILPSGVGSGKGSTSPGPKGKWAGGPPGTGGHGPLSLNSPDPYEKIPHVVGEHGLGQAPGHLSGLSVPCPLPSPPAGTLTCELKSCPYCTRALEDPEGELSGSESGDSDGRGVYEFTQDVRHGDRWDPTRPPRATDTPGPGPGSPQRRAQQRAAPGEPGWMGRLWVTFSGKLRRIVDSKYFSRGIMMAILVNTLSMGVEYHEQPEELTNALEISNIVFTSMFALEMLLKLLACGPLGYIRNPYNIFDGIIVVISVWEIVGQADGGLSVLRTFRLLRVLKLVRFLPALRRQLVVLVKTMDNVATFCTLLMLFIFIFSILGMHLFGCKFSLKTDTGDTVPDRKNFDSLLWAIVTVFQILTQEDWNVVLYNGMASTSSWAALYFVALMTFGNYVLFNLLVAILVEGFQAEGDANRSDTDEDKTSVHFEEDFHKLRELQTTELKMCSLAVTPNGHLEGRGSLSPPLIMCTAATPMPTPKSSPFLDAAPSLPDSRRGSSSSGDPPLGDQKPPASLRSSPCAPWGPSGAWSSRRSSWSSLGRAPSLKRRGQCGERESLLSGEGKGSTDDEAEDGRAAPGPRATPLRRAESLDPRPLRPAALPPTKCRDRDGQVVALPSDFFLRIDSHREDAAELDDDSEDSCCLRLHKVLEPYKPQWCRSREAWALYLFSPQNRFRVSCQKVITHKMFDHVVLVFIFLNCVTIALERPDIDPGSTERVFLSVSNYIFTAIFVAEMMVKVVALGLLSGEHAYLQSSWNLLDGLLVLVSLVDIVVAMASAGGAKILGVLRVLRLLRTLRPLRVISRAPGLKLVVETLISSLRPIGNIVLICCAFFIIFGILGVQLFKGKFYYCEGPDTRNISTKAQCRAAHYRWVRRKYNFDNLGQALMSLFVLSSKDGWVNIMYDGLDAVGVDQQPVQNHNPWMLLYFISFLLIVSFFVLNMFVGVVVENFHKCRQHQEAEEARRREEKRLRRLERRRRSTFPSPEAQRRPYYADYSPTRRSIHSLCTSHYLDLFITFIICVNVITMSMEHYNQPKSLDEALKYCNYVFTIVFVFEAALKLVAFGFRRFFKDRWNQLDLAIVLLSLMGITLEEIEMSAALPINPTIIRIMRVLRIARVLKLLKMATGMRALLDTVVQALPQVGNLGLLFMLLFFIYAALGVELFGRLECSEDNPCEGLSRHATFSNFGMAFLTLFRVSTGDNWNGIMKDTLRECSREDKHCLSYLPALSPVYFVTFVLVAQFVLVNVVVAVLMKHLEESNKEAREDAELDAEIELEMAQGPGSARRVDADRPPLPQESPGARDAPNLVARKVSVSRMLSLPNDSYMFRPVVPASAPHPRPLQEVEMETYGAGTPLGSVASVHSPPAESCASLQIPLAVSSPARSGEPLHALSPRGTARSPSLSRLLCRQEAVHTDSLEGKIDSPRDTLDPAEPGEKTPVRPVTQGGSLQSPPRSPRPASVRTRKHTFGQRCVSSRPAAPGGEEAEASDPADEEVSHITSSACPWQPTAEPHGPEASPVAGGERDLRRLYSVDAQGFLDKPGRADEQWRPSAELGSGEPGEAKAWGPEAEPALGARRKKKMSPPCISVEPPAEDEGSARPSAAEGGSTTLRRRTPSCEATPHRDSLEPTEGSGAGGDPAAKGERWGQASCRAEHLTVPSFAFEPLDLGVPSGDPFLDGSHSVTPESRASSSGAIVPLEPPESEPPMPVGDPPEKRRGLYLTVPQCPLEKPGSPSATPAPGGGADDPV
How it was run: as §1

IC50 [3]	IC50 [4]	Structure (SMILES)	fold selective for T-type over L-type channels [1]	anti-hyperalgesic activity in the spinal nerve ligation model [2]
3.47 µM	3.86 µM	Cc1cc(CNC[C@H]2CC[C@H](NC(=O)c3cc(C(F)(F)F)cc(C(F)(F)F)c3)CC2)no1 [Compound 90, N-(trans-4-(((5-methylisoxazol-3-yl)methylamino)methyl)cyclohexyl)-3,5-bis(trifluoromethyl)benzamide]	–	–
0.73 µM	1.14 µM	Cc1ccc(NC(=O)CN[C@H]2CC[C@H](CNC(=O)c3cc(C(F)(F)F)cc(C(F)(F)F)c3)CC2)nc1 [Compound 77, N-((trans-4-(2-(5-methylpyridin-2-ylamino)-2-oxoethylamino)cyclohexyl)methyl)-3,5-bis(trifluoromethyl)benzamide]	–	–
1.18 µM	0.26 µM	CC(C)(C)NC(=O)CN[C@H]1CC[C@@H](CNC(=O)c2cc(F)cc(Cl)c2)CC1 [Compound 186, N-(((1s,4s)-4-(2-(tert-butylamino)-2-oxoethylamino)cyclohexyl)methyl)-3-chloro-5-fluorobenzamide]	–	–
1.62 µM	0.21 µM	CN(C(=O)CN[C@H]1CC[C@@H](CNC(=O)c2cc(F)cc(Cl)c2)CC1)C(C)(C)C [Compound 196, N-(((1s,4s)-4-(2-(tert-butyl(methyl)amino)-2-oxoethylamino)cyclohexyl)methyl)-3-chloro-5-fluorobenzamide]	–	–
1.18 µM	4.01 µM	CC(C)(C)C1CN([C@H]2CC[C@H](CNC(=O)c3cc(C(F)(F)F)cc(C(F)(F)F)c3)CC2)C(=O)O1 (stereo partly drawn) [Compound 153, N-((trans-4-(5-tert-butyl-2-oxooxazolidin-3-yl)cyclohexyl)methyl)-3,5-bis(trifluoromethyl)benzamide]	–	–
1.9 µM	9.94 µM	O=C(C[C@H]1CC[C@@H](NC(=O)[C@@H]2CCCN2)CC1)Nc1cc(C(F)(F)F)cc(C(F)(F)F)c1 [Compound 143, (S)-N-(cis-4-(2-(3,5-bis(trifluoromethyl)phenylamino)-2-oxoethyl)cyclohexyl)pyrrolidine-2-carboxamide]	–	–
2.79 µM	7.87 µM	O=C(C[C@H]1CC[C@@H](NC(=O)[C@H]2CCCN2)CC1)Nc1cc(C(F)(F)F)cc(C(F)(F)F)c1 [Compound 146, (R)-N-(cis-4-(2-(3,5-bis(trifluoromethyl)phenylamino)-2-oxoethyl)cyclohexyl)pyrrolidine-2-carboxamide]	–	–
0.33 µM	0.21 µM	CC(C)CNC(=O)CN[C@H]1CC[C@@H](CNC(=O)c2cc(C(F)(F)F)cc(C(F)(F)F)c2)CC1 [Compound 70, N-((cis-4-(2-(isobutylamino)-2-oxoethylamino)cyclohexyl)methyl)-3,5-bis(trifluoromethyl)benzamide]	–	–
2.37 µM	3.42 µM	CC(C)(C)NC(=O)CN[C@H]1CC[C@@H](CNC(=O)c2cccc(C(F)(F)F)c2)CC1 [Compound 182, N-(((1s,4s)-4-(2-(tert-butylamino)-2-oxoethylamino)cyclohexyl)methyl)-3-(trifluoromethyl)benzamide]	–	–
≤ 0.3 µM	0.31 µM	C#CC(CC)(CC)NC(=O)CN[C@H]1CC[C@H](CNC(=O)c2cc(C(F)(F)F)cc(C(F)(F)F)c2)CC1 [Compound 62, N-((trans-4-(2-(3-ethylpent-1-yn-3-ylamino)-2-oxoethylamino)cyclohexyl)methyl)-3,5-bis(trifluoromethyl)benzamide]	–	–
1.63 µM	0.62 µM	CC1(NC(=O)CN[C@H]2CC[C@H](CNC(=O)c3cccc(OC(F)(F)F)c3)CC2)CCC1 [Compound 190, N-(((1r,4r)-4-(2-(1-methylcyclobutylamino)-2-oxoethylamino)cyclohexyl)methyl)-3-(trifluoromethoxy)benzamide]	–	–
1 µM	0.53 µM	O=C(CN[C@H]1CC[C@H](CNC(=O)c2cc(C(F)(F)F)cc(C(F)(F)F)c2)CC1)NCC(F)(F)F [Compound 58, N-((trans-4-(2-oxo-2-(2,2,2-trifluoroethylamino)ethylamino)cyclohexyl)methyl)-3,5-bis(trifluoromethyl)benzamide]	–	–
≤ 0.3 µM	0.27 µM	CCC(C)NC(=O)CN[C@H]1CC[C@@H](CNC(=O)c2cc(C(F)(F)F)cc(C(F)(F)F)c2)CC1 (stereo partly drawn) [Compound 71, N-((cis-4-(2-(sec-butylamino)-2-oxoethylamino)cyclohexyl)methyl)-3,5-bis(trifluoromethyl)benzamide]	–	–

More lines, now with the values behind:

Structure (SMILES)	IC50 [3]	IC50 [4]	fold selective for T-type over L-type channels [1]	anti-hyperalgesic activity in the spinal nerve ligation model [2]
COCC(=O)O[C@]1(CCN(C)CCCc2nc3ccccc3[nH]2)CCc2cc(F)ccc2[C@@H]1C(C)C [Mibefradil]	–	–	10-30 fold	anti-hyperalgesic activity
CCC1(C)CC(=O)NC1=O (stereo not shown) [ethosuximide]	–	–	–	anti-hyperalgesic activity
CC(C)(C)C(O)CN[C@H]1CC[C@@H](CNC(=O)c2cc(C(F)(F)F)cc(C(F)(F)F)c2)CC1 (stereo partly shown) [Compound 1]	0.39 µM	0.58 µM	–	–
COc1ccc(CN[C@H]2CC[C@@H](CNC(=O)c3cc(C(F)(F)F)cc(C(F)(F)F)c3)CC2)c(OC)c1 [Compound 14, N-((cis-4-(2,4-dimethoxybenzylamino)cyclohexyl)methyl)-3,5-bis(trifluoromethyl)benzamide]	≤ 0.3 µM	0.56 µM	–	–
CC(C)(O)CN[C@H]1CC[C@H](CNC(=O)c2cc(C(F)(F)F)cc(C(F)(F)F)c2)CC1 [Compound 4, N-((trans-4-(2-hydroxy-2-methylpropylamino)cyclohexyl)methyl)-3,5-bis(trifluoromethyl)benzamide]	4.54 µM	4.43 µM	–	–
O=C(NC[C@H]1CC[C@@H](NCc2ccccc2O)CC1)c1cc(C(F)(F)F)cc(C(F)(F)F)c1 [Compound 7, N-((cis-4-(2-hydroxybenzylamino)cyclohexyl)methyl)-3,5-bis(trifluoromethyl)benzamide]	≤ 0.3 µM	1.54 µM	–	–
O=C(NC[C@H]1CC[C@@H](NCc2cccc(F)c2O)CC1)c1cc(F)cc(C(F)(F)F)c1 [Compound 21, 3-fluoro-N-((cis-4-(3-fluoro-2-hydroxybenzylamino)cyclohexyl)methyl)-5-(trifluoromethyl)benzamide]	0.84 µM	4.58 µM	–	–
Cc1cc(CN[C@H]2CC[C@@H](CNC(=O)c3cc(C(F)(F)F)cc(C(F)(F)F)c3)CC2)no1 [Compound 52, N-((cis-4-((5-methylisoxazol-3-yl)methylamino)cyclohexyl)methyl)-3,5-bis(trifluoromethyl)benzamide]	1.24 µM	1.33 µM	–	–
CN(C(=O)CN[C@H]1CC[C@@H](CNC(=O)c2cc(C(F)(F)F)cc(C(F)(F)F)c2)CC1)C1CCCC1 [Compound 44, N-((cis-4-(2-(cyclopentyl(methyl)amino)-2-oxoethylamino)cyclohexyl)methyl)-3,5-bis(trifluoromethyl)benzamide]	≤ 0.3 µM	0.26 µM	–	–
COC1CCC(N(C)C(=O)CN[C@H]2CC[C@@H](CNC(=O)c3cc(C(F)(F)F)cc(C(F)(F)F)c3)CC2)CC1 (stereo partly drawn) [Compound 50, N-((cis-4-(2-((4-methoxycyclohexyl)(methyl)amino)-2-oxoethylamino)cyclohexyl)methyl)-3,5-bis(trifluoromethyl)benzamide]	4.28 µM	2.47 µM	–	–
CCC1CCCN1C(=O)CN[C@H]1CC[C@@H](CNC(=O)c2cc(C(F)(F)F)cc(C(F)(F)F)c2)CC1 (stereo partly drawn) [Compound 54, N-((cis-4-(2-(2-ethylpyrrolidin-1-yl)-2-oxoethylamino)cyclohexyl)methyl)-3,5-bis(trifluoromethyl)benzamide]	≤ 0.3 µM	0.21 µM	–	–
Cc1cccc(CN[C@H]2CC[C@@H](CNC(=O)c3cc(C(F)(F)F)cc(C(F)(F)F)c3)CC2)c1O [Compound 9, N-((cis-4-(2-hydroxy-3-methylbenzylamino)cyclohexyl)methyl)-3,5-bis(trifluoromethyl)benzamide]	0.85 µM	0.71 µM	–	–
O=C(NC[C@H]1CC[C@H](NCc2cccc(F)c2O)CC1)c1cc(C(F)(F)F)cc(C(F)(F)F)c1 [Compound 31, N-((trans-4-(3-fluoro-2-hydroxybenzylamino)cyclohexyl)methyl)-3,5-bis(trifluoromethyl)benzamide]	≤ 0.3 µM	2.47 µM	–	–
O=C(NC[C@H]1CC[C@@H](NCc2ncccc2O)CC1)c1cc(F)cc(C(F)(F)F)c1 [Compound 16, 3-fluoro-N-((cis-4-((3-hydroxypyridin-2-yl)methylamino)cyclohexyl)methyl)-5-(trifluoromethyl)benzamide]	4.44 µM	≥ 10 µM	–	–
O=C(NC[C@H]1CC[C@H](NCc2ccccc2O)CC1)c1cc(C(F)(F)F)cc(C(F)(F)F)c1 [Compound 25, N-((trans-4-(2-hydroxybenzylamino)cyclohexyl)methyl)-3,5-bis(trifluoromethyl)benzamide]	≤ 0.3 µM	2.45 µM	–	–
